# Experimental data as given in US20080038208A1, “Pharmaceutical/cosmetic compositions comprising the lysine-d-proline-valine tripeptide” (SOCIETE L'OREAL S.A., priority 1995, published 2008).
# Legend:
# mRNA of IL-1α = assay: Expression of IL-1α messenger RNA in plucked hairs (RT-PCR, relative to GAPDH), 3 h 30 min; format: cell-based, human; details: treated batch, band intensity divided by GAPDH, control batch 100%
# Method: (§1) Inhibition of the expression of the messenger RNAs of proinflammatory and inflammatory cytokines in response to the Ac-KPV-NH2* tripeptide.
# (§2) Ten plucked hairs were removed from the region of the vertex of a volunteer suffering from inflammatory alopecia. These were placed in a Williams' survival medium E (marketed by Gibco BRL) containing penicillin G (100 units/ml), streptomycin S (100 μg/ml) and amphotericin (250 ng/ml), in the presence (treated batch) or in the absence (control) of the Ac-KPV-NH2* tripeptide, synthesized to order by Neosystem S. A., (Strasbourg).
# (§3) After incubating for 3 h, 30 min, the messenger RNAs corresponding to these two batches of hair were purified from a “quick prep mRNA purification kit” marketed by Pharmacia. DNAs complementary to these mRNAs were then prepared by means of a reverse transcription kit marketed by Pharmacia, the manufacturer's instructions being followed, and then subjected to a polymerization chain reaction (PCR) stage by using primers specific for the mRNAs of glyceraldehyde-3-phosphate dehydrogenase (GAPDH), of IL-1α, of the type-1 IL-1 receptor and of the type-2 IL-1 receptor. The amounts of amplified DNA were then evaluated by electrophoresis on 1.5% agarose gel in the presence of ethidium bromide. […]
# [1] = tested on: catagenic papilla cells (PGE2 production); assay: Inhibition of IL-1α-induced production of PGE2 by catagenic papilla cells cultured in vitro; format: cell-based; details: 10 μM tripeptide; for PGE2: IL-1α 10 ng/ml for 20 hours, control 9.2, IL-1α alone 100.2; for % inhibition: PGE2 production induced by IL-1α 10 ng/ml
# Method: Measurement of the inhibition of the production of PGE2 by catagenic papilla cells cultured in vitro.
# The cells (1,000 per well), at the 24th passage, were incubated in 199 medium marketed by Gibco in the presence of 1% foetal calf serum and of antibiotics. 20 hours later, the medium was replaced by an identical medium, but containing the tripeptides to be evaluated at a final concentration of 10 μM. 5 hours later, interleukin-1α was added at a final concentration of 10 ng/ml. 20 hours later, the PGE2 levels produced by the cultured papilla cells were evaluated by means of a Biotrack kit marketed by Amersham, the manufacturer's instructions being followed. This method thus made it possible to evaluate the inhibiting effect of these tripeptides on the production of PGE2 induced by a proinflammatory cytokine: interleukin-1α.
# mRNAs of IL-1α = assay: Expression of the mRNAs of IL-1α calculated from the IL-1α/GAPDH ratio, plucked hairs of two donors, 20 hours; format: cell-based, human
# Method: Inhibiting effect of Ac-KPV-NH2* on the expression of the mRNAs of IL-1α, calculated from the IL-1α/GAPDH ratio.
# 5 hairs were plucked from two different donors and were then incubated for 20 hours at 37° C. (5% CO2) in Williams' medium E supplemented with antibiotics and with glutamine and in the presence of Ac-KPV-NH2* at the concentrations indicated. A control was carried out in which there was no peptide added.
# [2] = tested on: mRNA of the type-1 IL-1 receptor (IL-1R1); assay: Expression of type-1 IL-1 receptor messenger RNA in plucked hairs (RT-PCR, relative to GAPDH), 3 h 30 min; format: cell-based, human; details: treated batch, band intensity divided by GAPDH, control batch 100%
# Method: as §1, §2, §3
# interleukin-1α = assay: Production of interleukin-1α in the supernatant of plucked hairs from a patient with inflammatory alopecia (ELISA); format: cell-based, human; details: 20 hours; for % of inhibition: IL-1α in supernatant of plucked hairs; for IL-1α: supernatant of plucked hairs, control 21.8 pg/ml
# Method: Dose-response activity of the Ac-KPV-NH2* tripeptide with respect to the production of interleukin-1α in the supernatant of plucked hairs emanating from a patient afflicted with inflammatory alopecia.
# Plucked hairs were removed from the region of the vertex of a volunteer suffering from inflammatory alopecia. They were placed in a Williams' survival medium E (marketed by Gibco BRL) containing penicillin G (100 units/ml), streptomycin S (100 μg/ml) and amphotericin (250 ng/ml), in the presence or in the absence (control) of the Ac-KPV-NH2* tripeptide, synthesized to order by Neosystem S. A. (Strasbourg), at the doses indicated. After incubating for 20 hours, the culture supernatants were collected in a tube and then centrifuged for 5 minutes at 14,000 revolutions/minute (Eppendorff centrifuge, model 5415C). The supernatants were then collected in a clean tube and placed at 4° C.
# The interleukin-1α concentration was then evaluated with respect to 100 μl of supernatant by means of a Biotrak ELISA kit marketed by Amersham, according to the manufacturer's instructions.
substance,measurement,setting,value
Acetyl-(D)Lys-(D)Pro-(D)Val-NH2 [Ac—KPV—NH2*],% of expression IL-1α,mRNA of IL-1α,0%
same,PGE2,[1],28.0 pg/mL
same,% inhibition,[1],78%
same,"expression of the mRNAs of IL-1α (IL-1α/GAPDH ratio), % of the control","mRNAs of IL-1α; donor A, 1 μM",51%
same,"expression of the mRNAs of IL-1α (IL-1α/GAPDH ratio), % of the control","mRNAs of IL-1α; donor A, 10 μM",28%
same,"expression of the mRNAs of IL-1α (IL-1α/GAPDH ratio), % of the control","mRNAs of IL-1α; donor B, 0.1 μM",53%
same,"expression of the mRNAs of IL-1α (IL-1α/GAPDH ratio), % of the control","mRNAs of IL-1α; donor B, 1 μM",62%
same,"expression of the mRNAs of IL-1α (IL-1α/GAPDH ratio), % of the control","mRNAs of IL-1α; donor B, 10 μM",28.7%
same,% of expression IL-1R1,[2],26%
same,% of inhibition,interleukin-1α; 1 μM,49%
same,IL-1α,interleukin-1α; 1 μM,11.1 pg/mL
same,% of inhibition,interleukin-1α; 10 μM,72%
same,IL-1α,interleukin-1α; 10 μM,6.1 pg/mL
Acetyl-(L)Lys-(D)Pro-(L)Val-NH2 [Ac—K—(D)P—V—NH2***],PGE2,[1],24.6 pg/mL
same,% inhibition,[1],75%
"Acetyl-(L)Lys-(L)Pro-(L)Val-NH2 [Ac—K—P—V—NH2**, reference compound]",PGE2,[1],10.0 pg/mL
same,% inhibition,[1],90%
